Our source for the IC50 values is patent publication US20240140957A1, “BRIDGED COMPOUNDS AS KRAS G12D INHIBITOR AND DEGRADER AND THE USE THEREOF” (BeiGene Switzerland GmbH, priority 2021, published 2024).

The target in one experiment is GDP-loaded KRAS G12D (Homo sapiens, UniProt P01116, G12D). In words: KRAS G12D Probe Displacement Assay. The settings on record: KRAS G12D 0.5 nM, biotinylated probe 2 4 nM; read-out: KRAS G12D Probe Displacement Assay IC50. The format is binding.
For experiment [1], the system named is pERK1/2 (THR202/TYR204) in AsPC-1 cells. In words: pERK Assay (HTRF) in AsPC-1 cells. The class given is cell-based. The conditions noted are these: Homo sapiens, ASPC1, 2 h compound treatment. In general terms: In TR-FRET formats the signal depends on donor and acceptor labels being close together.
In another experiment the target is GDP-loaded WT KRAS (Homo sapiens, UniProt P01116). In words: KRAS WT Probe Displacement Assay. The format is binding. The conditions noted are these: WT KRAS 3 nM, biotinylated probe 1 60 nM; read-out: KRAS WT Probe Displacement Assay IC50.
Sequence of GDP-loaded WT KRAS (P01116 1-188 isoform P01116-2): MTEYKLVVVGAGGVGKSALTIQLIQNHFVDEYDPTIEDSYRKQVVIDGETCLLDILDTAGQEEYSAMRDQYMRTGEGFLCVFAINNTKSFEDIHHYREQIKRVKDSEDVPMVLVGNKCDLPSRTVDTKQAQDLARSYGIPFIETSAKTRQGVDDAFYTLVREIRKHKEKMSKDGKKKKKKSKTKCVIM

Sequence of GDP-loaded KRAS G12D (P01116 1-188 isoform P01116-2 G12D): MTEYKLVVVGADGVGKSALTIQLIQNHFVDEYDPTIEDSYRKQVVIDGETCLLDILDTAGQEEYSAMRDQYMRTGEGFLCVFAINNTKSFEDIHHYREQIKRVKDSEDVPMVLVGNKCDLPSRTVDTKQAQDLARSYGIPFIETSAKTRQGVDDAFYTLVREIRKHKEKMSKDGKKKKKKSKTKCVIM

On to `Cc1cc(N)nc(-c2c(Cl)cc3c(N4C5CNCC4COC5)nc(OC[C@@]45CCCN4C[C@H](F)C5)nc3c2F)c1C(F)(F)F` (stereo in doubt) [Example E88, 6-(4-(3-oxa-7,9-diazabicyclo[3.3.1]nonan-9-yl)-6-chloro-8-fluoro-2-((2-fluorotetrahydro-1H-pyrrolizin-7a(5H)-yl)methoxy)quinazolin-7-yl)-4-methyl-5-(trifluoromethyl)pyridin-2-amine], for which the IC50 – broadly, the midpoint of a concentration-inhibition curve – at GDP-loaded KRAS G12D was determined as 0.0017 µM; in experiment [1], 0.172 µM; at GDP-loaded WT KRAS, 0.049 µM.

As for `Nc1nc2c(-c3c(C(F)(F)F)cc4c(N5CC6CCC(C5)N6)nc(OC[C@@]56CCCN5C[C@H](F)C6)nc4c3F)ccc(F)c2s1` [Example E52, 4-(4-(3,8-diazabicyclo[3.2.1]octan-3-yl)-8-fluoro-2-(((2R,7aS)-2-fluorotetrahydro-1H-pyrrolizin-7a(5H)-yl)methoxy)-6-(trifluoromethyl)quinazolin-7-yl)-7-fluorobenzoI[d]thiazol-2-amine], the IC50 at GDP-loaded KRAS G12D was 0.00036 µM; in experiment [1], 0.048 µM; at GDP-loaded WT KRAS, 0.003 µM.

As for `Nc1nc2c(-c3c(Cl)cc4c(N5CC6CCC(C5)N6)nc(OCC56CCCN5CC(F)C6)nc4c3F)ccc(F)c2s1` (stereo not drawn) [Example E54, 4-(4-(3,8-diazabicyclo[3.2.1]octan-3-yl)-6-chloro-8-fluoro-2-((2-fluorotetrahydro-1H-pyrrolizin-7a(5H)-yl)methoxy)quinazolin-7-yl)-7-fluorobenzo[d]thiazol-2-amine], the IC50 on GDP-loaded KRAS G12D is 0.00035 µM; in experiment [1], 0.205 µM; on GDP-loaded WT KRAS, 0.0075 µM.

For `Nc1nc2c(-c3c(C(F)(F)F)cc4c(N5C6CNCC5COC6)nc(OC[C@@]56CCCN5C[C@H](F)C6)nc4c3F)ccc(F)c2s1` [Example E55, 4-(4-(3-oxa-7,9-diazabicyclo[3.3.1]nonan-9-yl)-8-fluoro-2-(((2R,7aS)-2-fluorotetrahydro-1H-pyrrolizin-7a(5H)-yl)methoxy)-6-(trifluoromethyl)quinazolin-7-yl)-7-fluorobenzo[d]thiazol-2-amine], the IC50 amounted to 0.00025 µM at GDP-loaded KRAS G12D, 0.059 µM in experiment [1] and 0.0027 µM on GDP-loaded WT KRAS.

For `COCCNC1C[C@H]2CC[C@@H]1N2c1nc(OC[C@@]23CCCN2C[C@H](F)C3)nc2c(F)c(-c3ccc(F)c4sc(N)nc34)c(C(F)(F)F)cc12` (stereo partly drawn) [Example E58, 7-fluoro-4-(8-fluoro-2-(((2R,7aS)-2-fluorotetrahydro-1H-pyrrolizin-7a(5H)-yl)methoxy)-4-((1S,4R)-2-((2-methoxyethyl)amino)-7-azabicyclo[2.2.1]heptan-7-yl)-6-(trifluoromethyl)quinazolin-7-yl)benzo[d]thiazol-2-amine], the IC50 at GDP-loaded KRAS G12D was found to be 0.0005 µM; in experiment [1], 0.19 µM; at GDP-loaded WT KRAS, 0.0076 µM.

With `CNC1C[C@H]2CC[C@@H]1N2c1nc(OC[C@@H]2C[C@@H](F)CN2C)nc2c(F)c(-c3ccc(F)c4sc(N)nc34)c(Cl)cc12` (stereo partly drawn) [Example E59, 4-(6-chloro-8-fluoro-2-(((2S,4R)-4-fluoro-1-methylpyrrolidin-2-yl)methoxy)-4-((1S,4R)-2-(methylamino)-7-azabicyclo[2.2.1]heptan-7-yl)quinazolin-7-yl)-7-fluorobenzo[d]thiazol-2-amine], the results for the IC50 (on GDP-loaded KRAS G12D; in experiment [1]; on GDP-loaded WT KRAS) were 0.014 µM, 1.4 µM and 0.39 µM, respectively.

With `Nc1nc2c(-c3c(C(F)(F)F)cc4c(N5C6CCC5CNC6)nc(OC[C@@]56CCCN5C[C@H](F)C6)nc4c3F)ccc(F)c2s1` [Example E60, 4-(4-(3,8-diazabicyclo[3.2.1]octan-8-yl)-8-fluoro-2-(((2R,7aS)-2-fluorotetrahydro-1H-pyrrolizin-7a(5H)-yl)methoxy)-6-(trifluoromethyl)quinazolin-7-yl)-7-fluorobenzo[d]thiazol-2-amine], the values for the IC50 (at GDP-loaded KRAS G12D; in experiment [1]; on GDP-loaded WT KRAS) were 0.00027 µM, 0.034 µM and 0.0026 µM, respectively.

For the compound `CN1CCCC1(C)COc1nc(N2CC3CCC(C2)N3)c2cc(Cl)c(-c3ccc(F)c4sc(N)nc34)c(F)c2n1` (stereo not drawn) [Example E61, 4-(4-(3,8-diazabicyclo [3.2.1]octan-3-yl)-6-chloro-2-((1,2-dimethylpyrrolidin-2-yl)methoxy)-8-fluoroquinazolin-7-yl)-7-fluorobenzo[d]thiazol-2-amine], the IC50 at GDP-loaded KRAS G12D was 0.0026 µM; in experiment [1], 2 µM; on GDP-loaded WT KRAS, 0.24 µM.

Consider `CC1(N2CCCCC2)CN(c2nc(N3CC4CCC(C3)N4)c3cc(Cl)c(-c4ccc(F)c5sc(N)nc45)c(F)c3n2)C1` [Example E62, 4-(4-(3,8-diazabicyclo[3.2.1]octan-3-yl)-6-chloro-8-fluoro-2-(3-methyl-3-(piperidin-1-yl)azetidin-1-yl)quinazolin-7-yl)-7-fluorobenzo[d]thiazol-2-amine], for which the IC50 at GDP-loaded KRAS G12D was 0.0096 µM; in experiment [1] it was 0.74 µM; on GDP-loaded WT KRAS, 0.66 µM.

For the compound `Nc1nc2c(-c3c(Cl)cc4c(N5CC6CCC(C5)N6)nc(OC[C@@]56CCCN5C[C@H](F)C6)nc4c3Cl)ccc(F)c2s1` [Example E63, 4-(4-(3,8-diazabicyclo[3.2.1]octan-3-yl)-6,8-dichloro-2-(((2R,7aS)-2-fluorotetrahydro-1H-pyrrolizin-7a(5H)-yl)methoxy)quinazolin-7-yl)-7-fluorobenzo[d]thiazol-2-amine], the figures for the IC50 (on GDP-loaded KRAS G12D; in experiment [1]; at GDP-loaded WT KRAS) were 0.00022 µM, 0.093 µM and 0.0085 µM, respectively.

`Nc1nc2c(-c3c(C(F)(F)F)cc4c(N5CC6CCC(C5)N6)nc(OC[C@@]56CCCN5C[C@H](F)C6)nc4c3Cl)ccc(F)c2s1` [Example E64, 4-(4-(3,8-diazabicyclo[3.2.1]octan-3-yl)-8-chloro-2-(((2R,7aS)-2-fluorotetrahydro-1H-pyrrolizin-7a(5H)-yl)methoxy)-6-(trifluoromethyl)quinazolin-7-yl)-7-fluorobenzoI[d]thiazol-2-amine]: the IC50 on GDP-loaded KRAS G12D was 0.00033 µM; in experiment [1], 0.038 µM; on GDP-loaded WT KRAS it was 0.0051 µM.

As to `Nc1cc(Cl)c(C(F)(F)F)c(-c2c(Cl)cc3c(N4CC5CCC(C4)N5)nc(OC[C@@]45CCCN4C[C@H](F)C5)nc3c2F)n1` [Example E65, 6-(4-(3,8-diazabicyclo[3.2.1]octan-3-yl)-6-chloro-8-fluoro-2-(((2R,7aS)-2-fluorotetrahydro-1H-pyrrolizin-7a(5H)-yl)methoxy)quinazolin-7-yl)-4-chloro-5-(trifluoromethyl)pyridin-2-amine], the figures for the IC50 (on GDP-loaded KRAS G12D; in experiment [1]; on GDP-loaded WT KRAS) were 0.00044 µM, 0.065 µM and 0.0205 µM, respectively.

As to `C=Cc1cc2c(N3CC4CCC(C3)N4)nc(OC[C@@H]3C[C@@H](F)CN3C)nc2c(F)c1-c1ccc(F)c2sc(N)nc12` [Example E66, 4-(4-((3,8-diazabicyclo[3.2.1]octan-3-yl)-8-fluoro-2-(((2S,4R)-4-fluoro-1-methylpyrrolidin-)-yl)methoxy)-6-vinylquinazolin-7-yl)-7-fluorobenzo[d]thiazol-2-amine], the IC50 at GDP-loaded KRAS G12D was 0.0022 µM; in experiment [1], 0.48 µM; on GDP-loaded WT KRAS, 0.072 µM.

For `CCc1cc2c(N3CC4CCC(C3)N4)nc(OC[C@@]34CCCN3C[C@H](F)C4)nc2c(F)c1-c1ccc(F)c2sc(N)nc12` [Example E67, 4-(4-(3,8-diazabicyclo[3.2.1]octan-3-yl)-6-ethyl-8-fluoro-2-(((2R,7aS)-2-fluorotetrahydro-1H-pyrrolizin-7a(5H)-yl)methoxy)quinazolin-7-yl)-7-fluorobenzo[d]thiazol-2-amine], the IC50 at GDP-loaded KRAS G12D was 0.00045 µM; in experiment [1], 0.095 µM; on GDP-loaded WT KRAS it was 0.0099 µM.

Regarding `CN(C)CC1(COc2nc(N3CC4CCC(C3)N4)c3cc(Cl)c(-c4ccc(F)c5sc(N)nc45)c(F)c3n2)CCC1` [Example E68, 4-(4-(3,8-diazabicyclo[3.2.1]octan-3-yl)-6-chloro-2-((1-((dimethylamino)-methyl)cyclobutyl)methoxy)-8-fluoroquinazolin-7-yl)-7-fluorobenzo[d]thiazol-2-amine], the IC50 at GDP-loaded KRAS G12D is 0.00058 µM; in experiment [1], 0.59 µM; at GDP-loaded WT KRAS it was 0.045 µM.

For the compound `C=C(C)c1cc2c(N3CC4CCC(C3)N4)nc(OC[C@@]34CCCN3C[C@H](F)C4)nc2c(F)c1-c1ccc(F)c2sc(N)nc12` [Example E69, 4-(4-(3,8-diazabicyclo[3.2.1]octan-3-yl)-8-fluoro-2-(((2R,7aS)-2-fluorotetrahydro-1H-pyrrolizin-7a(5H)-yl)methoxy)-6-(prop-1-en-2-yl)quinazolin-7-yl)-7-fluorobenzo[d]thiazol-2-amine], the IC50 on GDP-loaded KRAS G12D worked out at 0.00072 µM; in experiment [1], 0.216 µM; on GDP-loaded WT KRAS, 0.072 µM.

Turning to `CN(C)CC1(COc2nc(N3CC4CCC(C3)N4)c3cc(Cl)c(-c4ccc(F)c5sc(N)nc45)c(F)c3n2)CC1` [Example E70, 4-(4-(3,8-diazabicyclo[3.2.1]octan-3-yl)-6-chloro-2-((1-((dimethylamino)methyl)cyclopropyl)methoxy)-8-fluoroquinazolin-7-yl)-7-fluorobenzo[d]thiazol-2-amine], the IC50 at GDP-loaded KRAS G12D came to 0.00035 µM; in experiment [1], 0.927 µM; on GDP-loaded WT KRAS, 0.032 µM.

Turning to `CC(C)c1cc2c(N3CC4CCC(C3)N4)nc(OC[C@@]34CCCN3C[C@H](F)C4)nc2c(F)c1-c1ccc(F)c2sc(N)nc12` [Example E71, 4-(4-(3,8-diazabicyclo[3.2.1]octan-3-yl)-8-fluoro-2-(((2R,7aS)-2-fluorotetrahydro-1H-pyrrolizin-7a(5H)-yl)methoxy)-6-isopropylquinazolin-7-yl)-7-fluorobenzo[d]thiazol-2-amine], the IC50 on GDP-loaded KRAS G12D was 0.00059 µM; in experiment [1], 0.137 µM; on GDP-loaded WT KRAS it was 0.0378 µM.
